Reference: article PMC4410085 (Bioorganic & medicinal chemistry, 2015)

Key:
A-10 cells = experiment: Loss of cellular microtubules, indirect immunofluorescence; format: cell-based; settings: result in words
PDGFR-β = PDGFR-β (Homo sapiens, UniProt P09619); experiment: Phosphotyrosine ELISA cytoblot, PDGFR-β; format: cell-based; settings: PDGFR-β expressing cells, versus sunitinib
Bovine brain tubulin = experiment: Tubulin assembly assay; format: biochemical; settings: read-out: Inhibition tubulin assembly IC50; ± SD; purified bovine brain tubulin

Sequence of PDGFR-β (P09619 33-1106): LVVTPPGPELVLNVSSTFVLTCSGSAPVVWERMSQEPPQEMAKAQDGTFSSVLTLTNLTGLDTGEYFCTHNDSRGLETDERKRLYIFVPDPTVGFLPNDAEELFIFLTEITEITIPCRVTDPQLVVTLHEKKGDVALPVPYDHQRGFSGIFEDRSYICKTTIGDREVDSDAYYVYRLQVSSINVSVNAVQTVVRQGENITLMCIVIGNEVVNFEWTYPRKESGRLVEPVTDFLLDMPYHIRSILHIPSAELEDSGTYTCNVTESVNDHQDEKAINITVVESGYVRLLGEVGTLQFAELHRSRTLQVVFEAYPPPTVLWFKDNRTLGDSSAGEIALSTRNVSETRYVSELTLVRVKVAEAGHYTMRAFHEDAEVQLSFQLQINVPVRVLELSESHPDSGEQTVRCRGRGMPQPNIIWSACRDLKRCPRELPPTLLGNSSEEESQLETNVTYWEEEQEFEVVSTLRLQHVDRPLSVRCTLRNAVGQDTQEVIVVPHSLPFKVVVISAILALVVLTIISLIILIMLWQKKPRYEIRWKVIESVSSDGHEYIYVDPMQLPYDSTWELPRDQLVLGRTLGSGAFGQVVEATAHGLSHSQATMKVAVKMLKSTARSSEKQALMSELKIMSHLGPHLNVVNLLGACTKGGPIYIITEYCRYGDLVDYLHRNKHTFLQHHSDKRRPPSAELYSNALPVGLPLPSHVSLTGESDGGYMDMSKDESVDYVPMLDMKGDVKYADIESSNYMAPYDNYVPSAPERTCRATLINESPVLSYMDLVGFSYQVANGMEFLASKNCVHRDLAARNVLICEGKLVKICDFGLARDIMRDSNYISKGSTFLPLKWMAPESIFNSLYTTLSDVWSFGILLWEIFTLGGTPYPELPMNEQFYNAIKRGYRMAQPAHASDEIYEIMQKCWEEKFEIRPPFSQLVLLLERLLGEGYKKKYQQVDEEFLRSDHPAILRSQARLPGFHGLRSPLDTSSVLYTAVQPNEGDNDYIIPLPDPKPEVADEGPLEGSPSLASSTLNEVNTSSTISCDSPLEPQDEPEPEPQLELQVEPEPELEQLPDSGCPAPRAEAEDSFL

fold better than sunitinib, PDGFR-β (PDGFR-β) | SMILES | effect on cellular microtubules (A-10 cells) | IC50 (Bovine brain tubulin) [nM]
– | COc1ccc2c(c1)CCN2c1nc(C)nc2oc(C)cc12 [Compound 8, 4-(5-methoxyindolin-1-yl)-2,6-dimethylfuro[2,3-d]pyrimidine] | no effect on cellular microtubules | –
– | COc1ccc(N(C)c2nc(C)nc3oc(C)cc23)c(OC)c1 [Compound 2, N-(2,4-dimethoxyphenyl)-N,2,6-trimethylfuro[2,3-d]pyrimidin-4-amine] | dose-dependent loss of cellular microtubules | –
– | COc1ccc(N(C)c2nc(C)nc3oc(C)cc23)cc1OC [Compound 3, N-(3,4-dimethoxyphenyl)-N,2,6-trimethylfuro[2,3-d]pyrimidin-4-amine] | dose-dependent loss of cellular microtubules | –
– | COc1ccc2c(c1)CCCN2c1nc(C)nc2oc(C)cc12 [Compound 10, 4-(6-methoxy-3,4-dihydroquinolin-1(2H)-yl)-2,6-dimethylfuro[2,3-d]pyrimidine] | dose-dependent loss of cellular microtubules | –
about 4 fold | Cc1nc(N(C)c2ccc3c(c2)CCO3)c2cc(C)oc2n1 [Compound 6, N-(2,3-dihydro-1-benzofuran-5-yl)-N,2,6-trimethylfuro[2,3-d]pyrimidin-4-amine] | dose-dependent loss of cellular microtubules | –
about 4 fold | Cc1nc(N(C)c2ccc3occc3c2)c2cc(C)oc2n1 [Compound 7, N-1-benzofuran-5-yl-N,2,6-trimethylfuro[2,3-d]pyrimidin-4-amine] | dose-dependent loss of cellular microtubules | –
– | CCOc1ccc(N(C)c2nc(C)nc3oc(C)cc23)cc1 [Compound 12, N-(4-ethoxyphenyl)-N,2,6-trimethylfuro[2,3-d]pyrimidin-4-amine] | dose-dependent loss of cellular microtubules | –
– | COc1ccc(/C=C\c2cc(OC)c(OC)c(OC)c2)cc1O [CA-4] | – | 1000 ± 90
